Measurements taken from the NIST ThermoML archive (doi:10.1007/s10765-009-0602-6).
Numbers after ± are expanded uncertainties.

Assay: molar heat capacity at constant volume; xn = mol fraction of the nth substance listed
Settings: x1 = 0.2607

Compound: N [ammonia] + O
- molar heat capacity at constant volume (600.42 K, Fluid (supercritical or subcritical phases), Mass density=309.95 kg/m3, isochoric heat capacity): 99.2 ± 4 J/K/mol
- molar heat capacity at constant volume (600.43 K, Fluid (supercritical or subcritical phases), Mass density=301.94 kg/m3, isochoric heat capacity): 108.54 ± 4.6 J/K/mol
- molar heat capacity at constant volume (600.45 K, Fluid (supercritical or subcritical phases), Mass density=308.35 kg/m3, isochoric heat capacity): 94.94 ± 3.8 J/K/mol
- molar heat capacity at constant volume (600.48 K, Fluid (supercritical or subcritical phases), Mass density=299.79 kg/m3, isochoric heat capacity): 116.67 ± 4.8 J/K/mol
- molar heat capacity at constant volume (600.48 K, Liquid, Isochoric heat capacity): 116.67 ± 4.7 J/K/mol
- molar heat capacity at constant volume (600.5 K, Fluid (supercritical or subcritical phases), Mass density=299.79 kg/m3, isochoric heat capacity): 112.59 ± 4.6 J/K/mol
- molar heat capacity at constant volume (600.5 K, Fluid (supercritical or subcritical phases), Mass density=303.47 kg/m3, isochoric heat capacity): 94.55 ± 3.9 J/K/mol
- molar heat capacity at constant volume (600.51 K, Fluid (supercritical or subcritical phases), Mass density=301.94 kg/m3, isochoric heat capacity): 105.98 ± 4.3 J/K/mol
- molar heat capacity at constant volume (600.51 K, Fluid (supercritical or subcritical phases), Mass density=309.95 kg/m3, isochoric heat capacity): 100.78 ± 4 J/K/mol
- molar heat capacity at constant volume (600.59 K, Fluid (supercritical or subcritical phases), Mass density=299.79 kg/m3, isochoric heat capacity): 104.74 ± 4.2 J/K/mol
- molar heat capacity at constant volume (600.59 K, Fluid (supercritical or subcritical phases), Mass density=301.94 kg/m3, isochoric heat capacity): 99.68 ± 4 J/K/mol
- molar heat capacity at constant volume (600.59 K, Fluid (supercritical or subcritical phases), Mass density=303.47 kg/m3, isochoric heat capacity): 94.4 ± 3.9 J/K/mol
- molar heat capacity at constant volume (600.59 K, Fluid (supercritical or subcritical phases), Mass density=309.95 kg/m3, isochoric heat capacity): 100.97 ± 4 J/K/mol
- molar heat capacity at constant volume (600.62 K, Fluid (supercritical or subcritical phases), Mass density=308.35 kg/m3, isochoric heat capacity): 91.03 ± 3.6 J/K/mol
- molar heat capacity at constant volume (600.63 K, Fluid (supercritical or subcritical phases), Mass density=297.6 kg/m3, isochoric heat capacity): 114.9 ± 4.7 J/K/mol
- molar heat capacity at constant volume (600.63 K, Liquid, Isochoric heat capacity): 114.9 ± 4.6 J/K/mol
- molar heat capacity at constant volume (600.66 K, Fluid (supercritical or subcritical phases), Mass density=303.47 kg/m3, isochoric heat capacity): 95.13 ± 3.9 J/K/mol
- molar heat capacity at constant volume (600.67 K, Fluid (supercritical or subcritical phases), Mass density=299.79 kg/m3, isochoric heat capacity): 101.47 ± 4.2 J/K/mol
- molar heat capacity at constant volume (600.69 K, Fluid (supercritical or subcritical phases), Mass density=309.95 kg/m3, isochoric heat capacity): 95.49 ± 3.8 J/K/mol
- molar heat capacity at constant volume (600.72 K, Fluid (supercritical or subcritical phases), Mass density=297.6 kg/m3, isochoric heat capacity): 112.64 ± 4.5 J/K/mol
- molar heat capacity at constant volume (600.77 K, Fluid (supercritical or subcritical phases), Mass density=297.6 kg/m3, isochoric heat capacity): 109.73 ± 4.5 J/K/mol
- molar heat capacity at constant volume (600.77 K, Fluid (supercritical or subcritical phases), Mass density=299.79 kg/m3, isochoric heat capacity): 98.67 ± 4 J/K/mol
- molar heat capacity at constant volume (600.77 K, Fluid (supercritical or subcritical phases), Mass density=305.44 kg/m3, isochoric heat capacity): 101.79 ± 4.1 J/K/mol
- molar heat capacity at constant volume (600.8 K, Fluid (supercritical or subcritical phases), Mass density=308.35 kg/m3, isochoric heat capacity): 92.66 ± 3.7 J/K/mol
- molar heat capacity at constant volume (600.81 K, Fluid (supercritical or subcritical phases), Mass density=294.44 kg/m3, isochoric heat capacity): 113.83 ± 4.6 J/K/mol
- molar heat capacity at constant volume (600.81 K, Liquid, Isochoric heat capacity): 113.83 ± 4.5 J/K/mol
- molar heat capacity at constant volume (600.85 K, Fluid (supercritical or subcritical phases), Mass density=294.44 kg/m3, isochoric heat capacity): 111.38 ± 4.5 J/K/mol
- molar heat capacity at constant volume (600.85 K, Fluid (supercritical or subcritical phases), Mass density=297.6 kg/m3, isochoric heat capacity): 105.54 ± 4.2 J/K/mol
- molar heat capacity at constant volume (600.85 K, Fluid (supercritical or subcritical phases), Mass density=305.44 kg/m3, isochoric heat capacity): 96.13 ± 3.9 J/K/mol
- molar heat capacity at constant volume (600.86 K, Fluid (supercritical or subcritical phases), Mass density=299.79 kg/m3, isochoric heat capacity): 99.55 ± 4 J/K/mol
- molar heat capacity at constant volume (600.9 K, Fluid (supercritical or subcritical phases), Mass density=342.18 kg/m3, isochoric heat capacity): 88.83 ± 3.6 J/K/mol
- molar heat capacity at constant volume (600.93 K, Fluid (supercritical or subcritical phases), Mass density=292.97 kg/m3, isochoric heat capacity): 112.06 ± 4.6 J/K/mol
- molar heat capacity at constant volume (600.93 K, Liquid, Isochoric heat capacity): 112.06 ± 4.5 J/K/mol
- molar heat capacity at constant volume (600.94 K, Fluid (supercritical or subcritical phases), Mass density=292.97 kg/m3, isochoric heat capacity): 106.05 ± 4.3 J/K/mol
- molar heat capacity at constant volume (600.94 K, Fluid (supercritical or subcritical phases), Mass density=294.44 kg/m3, isochoric heat capacity): 103.91 ± 4.2 J/K/mol
- molar heat capacity at constant volume (600.94 K, Fluid (supercritical or subcritical phases), Mass density=297.6 kg/m3, isochoric heat capacity): 103.82 ± 4.2 J/K/mol
- molar heat capacity at constant volume (600.94 K, Fluid (supercritical or subcritical phases), Mass density=305.44 kg/m3, isochoric heat capacity): 99.89 ± 4 J/K/mol
- molar heat capacity at constant volume (600.94 K, Fluid (supercritical or subcritical phases), Mass density=320.33 kg/m3, isochoric heat capacity): 94.88 ± 3.8 J/K/mol
- molar heat capacity at constant volume (600.98 K, Fluid (supercritical or subcritical phases), Mass density=308.35 kg/m3, isochoric heat capacity): 89.18 ± 3.6 J/K/mol
- molar heat capacity at constant volume (601.02 K, Fluid (supercritical or subcritical phases), Mass density=305.44 kg/m3, isochoric heat capacity): 99.43 ± 4 J/K/mol
- molar heat capacity at constant volume (601.02 K, Fluid (supercritical or subcritical phases), Mass density=320.33 kg/m3, isochoric heat capacity): 95.95 ± 3.8 J/K/mol
- molar heat capacity at constant volume (601.02 K, Fluid (supercritical or subcritical phases), Mass density=342.18 kg/m3, isochoric heat capacity): 87.43 ± 3.5 J/K/mol
- molar heat capacity at constant volume (601.04 K, Fluid (supercritical or subcritical phases), Mass density=292.97 kg/m3, isochoric heat capacity): 101.74 ± 4.2 J/K/mol
- molar heat capacity at constant volume (601.05 K, Fluid (supercritical or subcritical phases), Mass density=291.16 kg/m3, isochoric heat capacity): 111.35 ± 4.6 J/K/mol
- molar heat capacity at constant volume (601.05 K, Liquid, Isochoric heat capacity): 111.35 ± 4.5 J/K/mol
- molar heat capacity at constant volume (601.08 K, Fluid (supercritical or subcritical phases), Mass density=291.16 kg/m3, isochoric heat capacity): 105.11 ± 4.2 J/K/mol
- molar heat capacity at constant volume (601.11 K, Fluid (supercritical or subcritical phases), Mass density=292.97 kg/m3, isochoric heat capacity): 94.42 ± 4.3 J/K/mol
- molar heat capacity at constant volume (601.11 K, Fluid (supercritical or subcritical phases), Mass density=301.94 kg/m3, isochoric heat capacity): 97.37 ± 3.9 J/K/mol
- molar heat capacity at constant volume (601.11 K, Fluid (supercritical or subcritical phases), Mass density=305.44 kg/m3, isochoric heat capacity): 95.1 ± 3.8 J/K/mol
- molar heat capacity at constant volume (601.11 K, Fluid (supercritical or subcritical phases), Mass density=320.33 kg/m3, isochoric heat capacity): 90.05 ± 3.6 J/K/mol
- molar heat capacity at constant volume (601.12 K, Fluid (supercritical or subcritical phases), Mass density=291.16 kg/m3, isochoric heat capacity): 93.41 ± 3.7 J/K/mol
- molar heat capacity at constant volume (601.16 K, Fluid (supercritical or subcritical phases), Mass density=188.05 kg/m3, isochoric heat capacity): 106.16 ± 4.8 J/K/mol
- molar heat capacity at constant volume (601.16 K, Liquid, Isochoric heat capacity): 102.61 ± 4.1 J/K/mol
- molar heat capacity at constant volume (601.19 K, Fluid (supercritical or subcritical phases), Mass density=301.94 kg/m3, isochoric heat capacity): 94.4 ± 3.8 J/K/mol
- molar heat capacity at constant volume (601.19 K, Fluid (supercritical or subcritical phases), Mass density=305.44 kg/m3, isochoric heat capacity): 94.51 ± 3.8 J/K/mol
- molar heat capacity at constant volume (601.19 K, Fluid (supercritical or subcritical phases), Mass density=320.33 kg/m3, isochoric heat capacity): 88.79 ± 3.6 J/K/mol
- molar heat capacity at constant volume (601.2 K, Fluid (supercritical or subcritical phases), Mass density=188.05 kg/m3, isochoric heat capacity): 93.94 ± 4.2 J/K/mol
- molar heat capacity at constant volume (601.21 K, Fluid (supercritical or subcritical phases), Mass density=291.16 kg/m3, isochoric heat capacity): 94.65 ± 3.9 J/K/mol
- molar heat capacity at constant volume (601.21 K, Fluid (supercritical or subcritical phases), Mass density=292.97 kg/m3, isochoric heat capacity): 99.73 ± 4.1 J/K/mol
- molar heat capacity at constant volume (601.24 K, Fluid (supercritical or subcritical phases), Mass density=342.18 kg/m3, isochoric heat capacity): 88.83 ± 3.6 J/K/mol
- molar heat capacity at constant volume (601.28 K, Fluid (supercritical or subcritical phases), Mass density=320.33 kg/m3, isochoric heat capacity): 91.03 ± 3.6 J/K/mol
- molar heat capacity at constant volume (601.29 K, Fluid (supercritical or subcritical phases), Mass density=301.94 kg/m3, isochoric heat capacity): 98.17 ± 3.9 J/K/mol
- molar heat capacity at constant volume (601.3 K, Fluid (supercritical or subcritical phases), Mass density=188.05 kg/m3, isochoric heat capacity): 86.48 ± 3.7 J/K/mol
- molar heat capacity at constant volume (601.34 K, Fluid (supercritical or subcritical phases), Mass density=285.71 kg/m3, isochoric heat capacity): 107.97 ± 4.5 J/K/mol
- molar heat capacity at constant volume (601.34 K, Fluid (supercritical or subcritical phases), Mass density=301.94 kg/m3, isochoric heat capacity): 95.7 ± 3.8 J/K/mol
- molar heat capacity at constant volume (601.34 K, Liquid, Isochoric heat capacity): 107.97 ± 4.3 J/K/mol
- molar heat capacity at constant volume (601.37 K, Fluid (supercritical or subcritical phases), Mass density=285.71 kg/m3, isochoric heat capacity): 99.59 ± 4 J/K/mol
- molar heat capacity at constant volume (601.37 K, Fluid (supercritical or subcritical phases), Mass density=294.44 kg/m3, isochoric heat capacity): 105.52 ± 4.2 J/K/mol
- molar heat capacity at constant volume (601.37 K, Fluid (supercritical or subcritical phases), Mass density=297.6 kg/m3, isochoric heat capacity): 102.84 ± 4.1 J/K/mol
- molar heat capacity at constant volume (601.37 K, Fluid (supercritical or subcritical phases), Mass density=342.18 kg/m3, isochoric heat capacity): 89.33 ± 3.6 J/K/mol
- molar heat capacity at constant volume (601.38 K, Fluid (supercritical or subcritical phases), Mass density=188.05 kg/m3, isochoric heat capacity): 66.72 ± 2.9 J/K/mol
- molar heat capacity at constant volume (601.39 K, Fluid (supercritical or subcritical phases), Mass density=291.16 kg/m3, isochoric heat capacity): 92.22 ± 3.8 J/K/mol
- molar heat capacity at constant volume (601.45 K, Fluid (supercritical or subcritical phases), Mass density=285.71 kg/m3, isochoric heat capacity): 94.44 ± 3.8 J/K/mol
- molar heat capacity at constant volume (601.45 K, Fluid (supercritical or subcritical phases), Mass density=294.44 kg/m3, isochoric heat capacity): 102.41 ± 4.1 J/K/mol
- molar heat capacity at constant volume (601.45 K, Fluid (supercritical or subcritical phases), Mass density=297.6 kg/m3, isochoric heat capacity): 99.66 ± 4 J/K/mol
- molar heat capacity at constant volume (601.45 K, Fluid (supercritical or subcritical phases), Mass density=301.94 kg/m3, isochoric heat capacity): 92.5 ± 3.7 J/K/mol
- molar heat capacity at constant volume (601.46 K, Fluid (supercritical or subcritical phases), Mass density=299.79 kg/m3, isochoric heat capacity): 97 ± 3.9 J/K/mol
- molar heat capacity at constant volume (601.47 K, Fluid (supercritical or subcritical phases), Mass density=320.33 kg/m3, isochoric heat capacity): 92.7 ± 3.7 J/K/mol
- molar heat capacity at constant volume (601.5 K, Fluid (supercritical or subcritical phases), Mass density=188.05 kg/m3, isochoric heat capacity): 72.1 ± 3.2 J/K/mol
- molar heat capacity at constant volume (601.53 K, Fluid (supercritical or subcritical phases), Mass density=299.79 kg/m3, isochoric heat capacity): 99 ± 4 J/K/mol
- molar heat capacity at constant volume (601.54 K, Fluid (supercritical or subcritical phases), Mass density=285.71 kg/m3, isochoric heat capacity): 89.22 ± 3.7 J/K/mol
- molar heat capacity at constant volume (601.54 K, Fluid (supercritical or subcritical phases), Mass density=297.6 kg/m3, isochoric heat capacity): 101.22 ± 4 J/K/mol
